Data reported in patent US5624923A, “Tricyclic diazepine vasopressin antagonists and oxytocin antagonists” (priority 1995, dated 1997).
pIC50: −log10 of the molar value. Read-outs that look alike come from different tables or passages of the source.

Columns and labels:
Vasopressin V1 = Vasopressin V1 Antagonist Activity in Conscious Rats (vasopressin vasopressor response); type: in vivo, rat; design: Average Change: unit not given here; conditions: for % Inhibition / Average Change: SHR
How it was run: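 Conscious rats are restrained supine, and under local 2% procaine a PE 10/20 cannula is passed through the ventral caudal tail artery into the lower abdominal aorta. The caudal vein is cannulated for intravenous dosing. Blood pressure is recorded with a Statham P23Db transducer, and vasopressin injections are repeated after compound dosing. Percent antagonism is calculated against the pre-drug vasopressor response taken as 100%.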

Rat Hepatic V1 Receptors = target: T1, Rat Hepatic V1 Receptors (Rattus norvegicus, UniProt P30560); assay: Binding Assay to Rat Hepatic V1 Receptors
T1 construct: Rat liver plasma membranes expressing the vasopressin V1 receptor subtypes; from tissue; host or cells: rat liver plasma membranes
T1 sequence (P30560 whole entry): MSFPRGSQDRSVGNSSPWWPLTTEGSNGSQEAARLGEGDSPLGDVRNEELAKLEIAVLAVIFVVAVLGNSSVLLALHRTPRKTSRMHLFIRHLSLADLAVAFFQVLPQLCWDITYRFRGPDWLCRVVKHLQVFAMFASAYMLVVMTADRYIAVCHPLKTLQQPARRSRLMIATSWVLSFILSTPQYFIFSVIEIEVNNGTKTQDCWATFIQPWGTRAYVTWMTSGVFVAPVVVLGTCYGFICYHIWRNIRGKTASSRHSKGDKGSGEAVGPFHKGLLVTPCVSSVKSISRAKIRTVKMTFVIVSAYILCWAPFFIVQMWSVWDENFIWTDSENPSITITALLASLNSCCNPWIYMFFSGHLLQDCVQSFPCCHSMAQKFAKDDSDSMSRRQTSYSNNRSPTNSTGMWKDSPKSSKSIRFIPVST

Vasopressin V2 = Vasopressin V2 Antagonist Activity in Conscious Hydrated Rats; type: in vivo, rat; conditions: AVP 0.4 μg/kg i.p.
Protocol: Vasopressin V2 Antagonist Activity in Conscious Hydrated Rats
Conscious hydrated rats are treated with compounds under study from 0.1 to 100 mg/kg orally or vehicle. Two to four rats are used for each compound. One hour later, arginine vasopressin (AVP, antidiuretic hormore, ADH) dissolved in peanut oil is administered at 0.4 μg/kg intraperitoneally. Two rats in each test would not receive arginine vasopressin but only the vehicle (peanut oil) to serve as water-loading control. Twenty minutes later each rat is given 30 mL/kg of deionized water orally by gavage and is placed individually in a metabolic cage equipped with a funnel and a graduated glass cylinder to collect urine for four hours. Urine volume is measured and osmolality analyzed by use of a Fiske One-Ten osmometer (Fiske Assoc., Norwood, Mass., USA). Urinary sodium, potassium, and chloride are analyzed by use of ion-specific electrodes in a Beckman E3 (Electrolyte 3) Analyzer.

[1] = target: T2, Rat Kidney Medullary V2 Receptors (Rattus norvegicus, UniProt Q00788); assay: Binding Assay to Rat Kidney Medullary V2 Receptors; conditions: for pIC50: rat kidney medulla membranes, read-out: V2 IC50
T2 construct: Medullary tissues from rat kidneys are dissected out; from tissue; host or cells: rat kidney medulla membranes
T2 sequence (Q00788 whole entry): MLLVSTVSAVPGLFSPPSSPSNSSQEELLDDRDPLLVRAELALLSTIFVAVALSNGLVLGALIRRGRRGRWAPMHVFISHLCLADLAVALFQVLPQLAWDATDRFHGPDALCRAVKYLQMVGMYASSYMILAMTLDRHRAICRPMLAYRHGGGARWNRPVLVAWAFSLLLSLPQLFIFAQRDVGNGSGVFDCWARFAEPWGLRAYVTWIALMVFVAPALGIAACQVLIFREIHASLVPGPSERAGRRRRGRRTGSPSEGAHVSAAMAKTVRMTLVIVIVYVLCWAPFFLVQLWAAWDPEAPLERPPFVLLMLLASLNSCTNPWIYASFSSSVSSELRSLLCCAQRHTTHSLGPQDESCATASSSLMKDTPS
How it was run: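 IC50 derived from competition curves; bound tritium counted by liquid scintillation after filtration. Rat medullary kidney membranes (Tris-HCl pH 7.4, BSA, PMSF) were incubated 120 min to equilibrium with radioligand and test compound (added in 50% DMSO). Nonspecific binding: 1.0 μM unlabeled ligand.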

[2] = 10 mg/kg i.v., VAS 0.01 i.u./kg, 30 min
[3] = 10 mg/kg i.v., VAS 0.01 i.u./kg, 60 min
[4] = 10 mg/kg i.v., VAS 0.01 i.u./kg, 90 min
[5] = 10 mg/kg i.v., VAS 0.01 i.u./kg, 120 min
[6] = 10 mg/kg i.v., VAS 0.01 i.u./kg, 180 min
[7] = 10 mg/kg i.v., VAS 0.01 i.u./kg, 240 min
[8] = 10 mg/kg i.v., VAS 0.01 i.u./kg, 300 min
[9] = 10 mg/kg i.v., VAS 0.02 i.u./kg, 30 min
[10] = 10 mg/kg i.v., VAS 0.02 i.u./kg, 60 min
[11] = 10 mg/kg i.v., VAS 0.02 i.u./kg, 90 min
[12] = 10 mg/kg i.v., VAS 0.02 i.u./kg, 120 min
[13] = 10 mg/kg i.v., VAS 0.02 i.u./kg, 180 min
[14] = 10 mg/kg i.v., VAS 0.02 i.u./kg, 240 min
[15] = 10 mg/kg i.v., VAS 0.02 i.u./kg, 300 min
[16] = rat liver membranes; read-out: V1 IC50

With `Cc1ccsc1C(=O)Nc1ccc(C(=O)N2Cc3cccn3Cc3ccccc32)cc1` [Example 5, N-[4-(5H-pyrrolo[2,1-c][1,4]benzodiazepin10(11H)-ylcarbonyl)phenyl]-3-methyl-2-thiophenecarboxamide] the “% Inhibition” value (Vasopressin V1; [2]) was 83%, the “Average Change” value (Vasopressin V1; [2]) was 5.5 and the “% Inhibition” value (Vasopressin V1; [3]) was 76%. The “Average Change” value (Vasopressin V1; [3]) was 7.5, the “% Inhibition” value (Vasopressin V1; [4]) was 71% and the “Average Change” value (Vasopressin V1; [4]) was 9. The “% Inhibition” value (Vasopressin V1; [5]) was 59%, the “Average Change” value (Vasopressin V1; [5]) was 13 and the “% Inhibition” value (Vasopressin V1; [6]) was 62%. The “Average Change” value (Vasopressin V1; [6]) was 12, the “% Inhibition” value (Vasopressin V1; [7]) was 46% and the “Average Change” value (Vasopressin V1; [7]) was 17. The “% Inhibition” value (Vasopressin V1; [8]) was 5%, the “Average Change” value (Vasopressin V1; [8]) was 30 and the “% Inhibition” value (Vasopressin V1; [9]) was 72%. For the same molecule, the “Average Change” value (Vasopressin V1; [9]) was 13.5, the “% Inhibition” value (Vasopressin V1; [10]) was 78% and the “Average Change” value (Vasopressin V1; [10]) was 10.5. The “% Inhibition” value (Vasopressin V1; [11]) was 83%, the “Average Change” value (Vasopressin V1; [11]) was 8 and the “% Inhibition” value (Vasopressin V1; [12]) was 69%. For the same molecule, the “Average Change” value (Vasopressin V1; [12]) was 15, the “% Inhibition” value (Vasopressin V1; [13]) was 60% and the “Average Change” value (Vasopressin V1; [13]) was 19. The “% Inhibition” value (Vasopressin V1; [14]) was 51%, the “Average Change” value (Vasopressin V1; [14]) was 23.5 and the “% Inhibition” value (Vasopressin V1; [15]) was 18%. The “Average Change” value (Vasopressin V1; [15]) was 39.5, the pIC50 (Rat Hepatic V1 Receptors; [16]) was 7.82 and the Osmolality (Vasopressin V2; 10 mg/kg orally) was 1079 mOsm/kg. For the same molecule, the “Urine Volume” value (Vasopressin V2; 10 mg/kg orally) was 8.5 ml/4 hrs, the Osmolality (Vasopressin V2; 30 mg/kg orally) was 955 mOsm/kg and the “Urine Volume” value (Vasopressin V2; 30 mg/kg orally) was 7.7 ml/4 hrs. For the same molecule, the pIC50 [1] was 7.60.
For `Cc1cccc(C(=O)Nc2ccc(C(=O)N3Cc4cccn4Cc4ccccc43)cc2)c1C` [Example 467, N-[4-(5H-pyrrolo[2,1-c][1,4]benzodiazepin-10(11H)-ylcarbonyl)phenyl]-2,3-dimethylbenzamide], the “Max. % Inhibition” value (Vasopressin V1; 10 mg/kg i.v.) was 65%, the “Time (of max. % inhibition)” value (Vasopressin V1; 10 mg/kg i.v.) was 120 min and the pIC50 (Rat Hepatic V1 Receptors; [16]) was 7.51. For the same molecule, the Osmolality (Vasopressin V2; 10 mg/kg orally) was 365 mOsm/kg, the “Urine Volume” value (Vasopressin V2; 10 mg/kg orally) was 18 ml/4 hrs and the pIC50 [1] was 8.30.
In the case of `O=C(CC1CCCCC1)Nc1ccc(C(=O)N2Cc3cccn3Cc3ccccc32)cc1` [Example 356, N-[4-(5H-Pyrrolo[2,1-c][1,4]benzodiazepin-10(11)ylcarbonyl)phenyl]-cyclohexylacetamide], the pIC50 (Rat Hepatic V1 Receptors; [16]) was 7.06, the Osmolality (Vasopressin V2; 10 mg/kg orally) was 1023 mOsm/kg and the “Urine Volume” value (Vasopressin V2; 10 mg/kg orally) was 5.8 ml/4 hrs. For the same molecule, the pIC50 [1] was 7.28.
For `O=C(Nc1ccc(C(=O)N2Cc3cccn3Cc3ccccc32)cc1)C1CC=CCC1` (centres unmarked) [Example 354, N-[4-(5H-Pyrrolo[2,1-c][1,4]benzodiazepin-10(11)-ylcarbonyl)phenyl]-3-cyclohexenecarboxamide], the pIC50 (Rat Hepatic V1 Receptors; [16]) was 7.92, the Osmolality (Vasopressin V2; 10 mg/kg orally) was 1010 mOsm/kg and the “Urine Volume” value (Vasopressin V2; 10 mg/kg orally) was 8.8 ml/4 hrs. It also gave a pIC50 [1] of 8.15.
`Cc1ccccc1C(=O)N(C)c1ccc(C(=O)N2Cc3cccn3Cc3ccccc32)cc1` [Example 384, N-[4-(5H-Pyrrolo[2,1-c][1,4]benzodiazepin-10(11H)-ylcarbonyl)phenyl]-N-methyl-2-methylbenzamide] was tested, and the “% Inhibition” value (Vasopressin V1; [2]) was 62%, the “Average Change” value (Vasopressin V1; [2]) was 9 and the “% Inhibition” value (Vasopressin V1; [3]) was 62%. The “Average Change” value (Vasopressin V1; [3]) was 9, the “% Inhibition” value (Vasopressin V1; [4]) was 49% and the “Average Change” value (Vasopressin V1; [4]) was 12. For the same molecule, the “% Inhibition” value (Vasopressin V1; [5]) was 55%, the “Average Change” value (Vasopressin V1; [5]) was 10.5 and the “% Inhibition” value (Vasopressin V1; [6]) was 53%. The “Average Change” value (Vasopressin V1; [6]) was 11, the “% Inhibition” value (Vasopressin V1; [7]) was 53% and the “Average Change” value (Vasopressin V1; [7]) was 11. For the same molecule, the “% Inhibition” value (Vasopressin V1; [8]) was 49%, the “Average Change” value (Vasopressin V1; [8]) was 12 and the “% Inhibition” value (Vasopressin V1; [9]) was 61%. For the same molecule, the “Average Change” value (Vasopressin V1; [9]) was 14.5, the “% Inhibition” value (Vasopressin V1; [10]) was 72% and the “Average Change” value (Vasopressin V1; [10]) was 10.5. For the same molecule, the “% Inhibition” value (Vasopressin V1; [11]) was 58%, the “Average Change” value (Vasopressin V1; [11]) was 15.5 and the “% Inhibition” value (Vasopressin V1; [12]) was 69%. The “Average Change” value (Vasopressin V1; [12]) was 11.5, the “% Inhibition” value (Vasopressin V1; [13]) was 64% and the “Average Change” value (Vasopressin V1; [13]) was 13.5. For the same molecule, the “% Inhibition” value (Vasopressin V1; [14]) was 59%, the “Average Change” value (Vasopressin V1; [14]) was 15 and the “% Inhibition” value (Vasopressin V1; [15]) was 54%. The “Average Change” value (Vasopressin V1; [15]) was 17, the pIC50 (Rat Hepatic V1 Receptors; [16]) was 6.73 and the pIC50 [1] was 7.23.
In the case of `O=C(Nc1ccc(C(=O)N2Cc3cccn3Cc3ccccc32)cc1)C1CCCO1` (centres unmarked) [Example 600, N-[4-(5H-Pyrrolo[2,1-c][1,4]benzodiazepin-10(11H)-ylcarbonyl)phenyl]tetrahydrofurane-2-carboxamide], the “Max. % Inhibition” value (Vasopressin V1; 30 mg/kg i.v.) was 78%, the “Time (of max. % inhibition)” value (Vasopressin V1; 30 mg/kg i.v.) was 60 min and the pIC50 (Rat Hepatic V1 Receptors; [16]) was 6.38. For the same molecule, the pIC50 [1] was 6.13.
In the case of `Cc1ccccc1NC(=O)Nc1ccc(C(=O)N2Cc3cccn3Cc3ccccc32)cc1` [Example 116, 10,11-Dihydro-10-[4-[[[(2-methylphenyl]amino]-carbonl]amino]benzoyl]-5H-pyrrolo[2,1-c]-[1,4]benzodiazepine], the “% Inhibition” value (Vasopressin V1; [2]) was 22%, the “Average Change” value (Vasopressin V1; [2]) was 22.5 and the “% Inhibition” value (Vasopressin V1; [3]) was 38%. For the same molecule, the “Average Change” value (Vasopressin V1; [3]) was 18, the “% Inhibition” value (Vasopressin V1; [4]) was 34% and the “Average Change” value (Vasopressin V1; [4]) was 19. For the same molecule, the “% Inhibition” value (Vasopressin V1; [5]) was 33%, the “Average Change” value (Vasopressin V1; [5]) was 19.5 and the “% Inhibition” value (Vasopressin V1; [6]) was 38%. The “Average Change” value (Vasopressin V1; [6]) was 18, the “% Inhibition” value (Vasopressin V1; [7]) was 45% and the “Average Change” value (Vasopressin V1; [7]) was 16. For the same molecule, the “% Inhibition” value (Vasopressin V1; [8]) was 24%, the “Average Change” value (Vasopressin V1; [8]) was 22 and the “% Inhibition” value (Vasopressin V1; [9]) was 24%. For the same molecule, the “Average Change” value (Vasopressin V1; [9]) was 36.5, the “% Inhibition” value (Vasopressin V1; [10]) was 30% and the “Average Change” value (Vasopressin V1; [10]) was 33.5. For the same molecule, the “% Inhibition” value (Vasopressin V1; [11]) was 33%, the “Average Change” value (Vasopressin V1; [11]) was 32 and the “% Inhibition” value (Vasopressin V1; [12]) was 17%. The “Average Change” value (Vasopressin V1; [12]) was 40, the “% Inhibition” value (Vasopressin V1; [13]) was 17% and the “Average Change” value (Vasopressin V1; [13]) was 40. For the same molecule, the “% Inhibition” value (Vasopressin V1; [14]) was 20%, the “Average Change” value (Vasopressin V1; [14]) was 38.5 and the “% Inhibition” value (Vasopressin V1; [15]) was 14%. For the same molecule, the “Average Change” value (Vasopressin V1; [15]) was 41.5, the pIC50 (Rat Hepatic V1 Receptors; read-out: V1 IC50; rat liver membranes) was 6.55 and the pIC50 [1] was 7.07.
`O=C(c1ccc(NS(=O)(=O)c2ccccc2Cl)cc1)N1Cc2cccn2Cc2ccccc21` [Example 488, 10-[4-[[(2-Chlorophenyl)sulfonyl]amino]benzoyl]-10,11-dihydro-5H-pyrrolo[2,1-c][1,4]benzodiazepine] was tested, and the “Max. % Inhibition” value (Vasopressin V1; 30 mg/kg i.v.) was 43%, the “Time (of max. % inhibition)” value (Vasopressin V1; 30 mg/kg i.v.) was 60 min and the inhibition at 10 µM (Rat Hepatic V1 Receptors; 2 h; 10 μM, rat) was 96%. It also gave an inhibition at 10 µM ([1]; 10 μM, rat) of 87%.
